Data on 43 compounds can be found in patent US11952387B2, “Bicyclic heteroaromatic ring derivative” (priority 2018, dated 2024).

Each structure is given as a SMILES string.

In this assay the test system is HRV14. The experiment in a line: Inhibitory activity against human rhinovirus infection and replication (quantitative real-time PCR). The assay is classed as cell-based. The following applies: Human rhinovirus sp., MRC5; 100 nmol/L test compound; MRC-5 cells infected with HRV14 at MOI=0.2; 48 hours; viral load normalized to 18s rRNA; read-out: Percent Inhibition. The protocol:
Evaluation of inhibitory activity against human rhinovirus infection and replication (by quantitative real-time PCR)
A required amount of a test compound was weighed off and dissolved in dimethyl sulfoxide (DMSO) to yield a 10 mmol/L stock solution. Next, the stock solution was diluted with a medium for viral infection (minimum essential medium (MEM) supplemented with 2% fetal bovine serum, 5% Tryptose phosphate broth, and 30 mmol/L MgCl2) to prepare 100 nmol/L and 1000 nmol/L of test compound solutions. MRC-5 (human fetal lung fibroblast: ATCC) was suspended at a density of 30000 cells/mL in cell culture medium (MEM supplemented with 10% fetal bovine serum), and 625 μL of the suspension per well was seeded into a 24-well cell culture plate and cultured at 37° C. in 5% CO2. After 72 hours, it was confirmed that the plate had become 80% confluent. The plate was washed with 625 μL of phosphate-buffered physiological saline (Ca/Mg-free; PBS-) once, and 625 μL of the test compound solution prepared just before use was immediately added to the plate. After 30 minutes, the medium was removed followed by addition of 187.5 μL of the test compound solution that had been prepared such that the cells were infected with HRV14 (ATCC) at multiplicity of infection (MOI)=0.2. The cells were then cultured at 35° C. in 5% CO2. After additional 2 hours, 625 μL of the test compound solution prepared just before use was added, and the cells were cultured at 35° C. in 5% CO2. After 48 hours, the cells were washed with 625 μL of PBS- once, and total RNA was extracted from the cells using RNeasy (R) plus kit (Qiagen) according to the manufacturer's instruction. Subsequently, cDNA was synthesized using High-Capacity cDNA Reverse Transcription Kit (Thermo Fisher Scientific). Finally, quantitative real-time PCR was performed in 7500 Fast Real-time PCR system (Life technologies) to measure HRV14 and 18s rRNA. The measurement protocol consisted of the initial denaturation phase at 95° C. for 20 seconds followed by 40 cycles of the denaturation step at 95° C. for 3 seconds and the annealing/elongation step at 60° C. for 30 seconds. The primers used were HRV14 forward primer set forth in SEQ ID NO: 1 and HRV14 reverse primer set forth in SEQ ID NO: 2, and the probe is set forth in SEQ ID NO: 3.
18s rRNA was measured using Eukaryotic 18S rRNA Endogenous Control (Applied Biosystems). According to Equation 1, 18s ribosomal RNA was used as an internal standard to normalize the viral load of HRV14: Viral load of HRV14=The amount of HRV14 in virus-infected cells/the amount of 18s rRNA in virus-infected cells Equation 1
Inhibitory activity of test compounds was calculated as a percent inhibition (%) according to Equation 2: Percent inhibition (%)=[the viral load of HRV in virus-infected cells in the absence of the test compound −the viral load of HRV in virus-infected cells in the presence of the test compound]/[the viral load of HRV in virus-infected cells in the absence of the test compound]×100 Equation 2
The results of using 100 nmol/L test compound solutions were shown in the tables below according to Examples. In the tables, percent inhibition was expressed as follows: percent inhibition >80%: +++, 80%≥percent inhibition >50%: ++, and 50%≥percent inhibition:+.
`COc1ccc(-c2c(C)nc3sc(C(C)(C)O)nn23)cc1S(=O)(=O)N[C@H]1CC[C@H](O)CC1` [Example 1-1]: the inhibition at 0.1 µM was 50 to 80%.
For `Cc1nc2sc(C(C)(C)O)cn2c1-c1ccc(Cl)c(S(=O)(=O)N[C@H]2CC[C@@H](O)CC2)c1` [Example 1-2], the inhibition at 0.1 µM was not above 50%.
Take `Cc1nc2sc(C(C)(C)O)cn2c1-c1ccc(OC(F)(F)F)c(S(=O)(=O)N[C@H]2CC[C@@H](O)CC2)c1` [Example 1-3]: the inhibition at 0.1 µM is not above 50%.
Turning to `Cc1nc2sc(C(C)(C)C)cn2c1-c1ccc(Cl)c(S(=O)(=O)N[C@H]2CC[C@@H](O)CC2)c1` [Example 1-4], the inhibition at 0.1 µM was more than 80%.
The figure for `Cc1nc2sc(C3CC3)cn2c1-c1ccc(Cl)c(S(=O)(=O)N[C@H]2CC[C@@H](O)CC2)c1` [Example 1-5] is 50 to 80%; for `COc1ccc(-c2c(C)nc3sc(C(C)C)nn23)cc1S(=O)(=O)N[C@H]1CC[C@@H](O)CC1` [Example 1-6] it is more than 80%; for `Cc1nc2sc(C(C)(C)O)nn2c1-c1ccc(Cl)c(S(=O)(=O)N[C@H]2CC[C@@H](O)CC2)c1` [Example 1-7] it is more than 80%.
Next, `Cc1nc2sc(C(C)(C)OC3COC3)cn2c1-c1ccc(Cl)c(S(=O)(=O)N[C@H]2CC[C@@H](O)CC2)c1` [Example 1-8]: 50 to 80%; `Cc1nc2sc(C(C)C)nn2c1-c1ccc(Cl)c(S(=O)(=O)N[C@H]2CC[C@@H](O)CC2)c1` [Example 1-9]: more than 80%; `Cc1nc2sc(C(C)(C)C)cn2c1-c1ccc(C#N)c(S(=O)(=O)N[C@H]2CC[C@@H](O)CC2)c1` [Example 1-10]: more than 80%.
The figure for `Cc1nc2sc(C(O)(C(F)(F)F)C(F)(F)F)cn2c1-c1ccc(Cl)c(S(=O)(=O)N[C@H]2CC[C@@H](O)CC2)c1` [Example 1-11] is not above 50%.
With `COc1ccc(-c2c(C)nc3sc(C(OC)(C(F)(F)F)C(F)(F)F)cn23)cc1S(=O)(=O)N[C@H]1CC[C@@H](O)CC1` [Example 1-12], the inhibition at 0.1 µM is more than 80%.
With `COc1ncc(-c2c(C)nc3sc(C(C)(C)C)cn23)cc1S(=O)(=O)N[C@H]1CC[C@@H](O)CC1` [Example 1-13], the inhibition at 0.1 µM was more than 80%.
Regarding `COc1ccc(-c2c(C)nc3sc(C(C)(C)O)nn23)cc1S(=O)(=O)N[C@H]1CC[C@@H](O)CC1` [Example 1-14], the inhibition at 0.1 µM fell in the range of 50 to 80%.
With `COc1ncc(-c2c(C)nc3sc(C4CC4)nn23)cc1S(=O)(=O)N[C@H]1CC[C@@H](O)CC1` [Example 1-16], the inhibition at 0.1 µM fell in the range of 50 to 80%.
Take `Cc1nc2sc(C(C)(C)O)nn2c1-c1ccc(OC(F)(F)F)c(S(=O)(=O)N[C@H]2CC[C@@H](O)CC2)c1` [Example 1-17]: the inhibition at 0.1 µM is more than 80%.
The figure for `COc1ncc(-c2c(C)nc3sc(C(C)(C)C#N)nn23)cc1S(=O)(=O)N[C@H]1CC[C@@H](O)CC1` [Example 1-18] is 50 to 80%.
Next, `Cc1nc2sc(C(C)(C)O)cn2c1-c1ccc(C(F)(F)F)c(S(=O)(=O)N[C@H]2CC[C@@H](O)CC2)c1` [Example 1-19]: more than 80%.
With `COc1ccc(-c2c(C)nc3sc(C(C)(C)C#N)nn23)cc1S(=O)(=O)N[C@H]1CC[C@@H](O)CC1` [Example 1-20], the inhibition at 0.1 µM is more than 80%.
As to `COc1ncc(-c2c(C)nc3sc(C(C)(C)O)nn23)cc1S(=O)(=O)N[C@H]1CC[C@@H](O)CC1` [Example 1-21], the inhibition at 0.1 µM is not above 50%.
For `CCOC(=O)C(C)(C)c1nn2c(-c3ccc(OC)c(S(=O)(=O)N[C@H]4CC[C@@H](O)CC4)c3)c(C)nc2s1` [Example 1-22], the inhibition at 0.1 µM was more than 80%.
Next, `COC(=O)C(C)(C)c1nn2c(-c3cnc(OC)c(S(=O)(=O)N[C@H]4CC[C@@H](O)CC4)c3)c(C)nc2s1` [Example 1-23]: more than 80%; `COc1ncc(-c2c(C)nc3sc(C(C)(C)O)nn23)cc1S(=O)(=O)N[C@H]1CC[C@H](O)CC1` [Example 1-24]: not above 50%; `Cc1nc2sc(C(C)(C)O)nn2c1-c1ccc(C(F)(F)F)c(S(=O)(=O)N[C@H]2CC[C@H](O)CC2)c1` [Example 1-25]: more than 80%.
The figure for `Cc1nc2sc(C(C)(C)O)nn2c1-c1ccc(C(F)(F)F)c(S(=O)(=O)N[C@H]2CC[C@@H](O)CC2)c1` [Example 1-26] is more than 80%; for `COc1ccc(-c2c(C)nc3sc(C(C)(C)O)cn23)cc1S(=O)(=O)C[C@H]1CC[C@@H](O)CC1` [Example 1-27] it is not above 50%.
Turning to `COc1ccc(-c2c(C)nc3sc(C(C)(C)OC)nn23)cc1S(=O)(=O)N[C@H]1CC[C@H](O)CC1` [Example 1-28], the inhibition at 0.1 µM is more than 80%.
The figure for `COC(C)(C)c1nn2c(-c3ccc(C(F)(F)F)c(S(=O)(=O)N[C@H]4CC[C@H](O)CC4)c3)c(C)nc2s1` [Example 1-29] is more than 80%; for `Cc1nc2sc(C3CC3)nn2c1-c1ccc(C(F)(F)F)c(S(=O)(=O)N[C@H]2CC[C@H](O)CC2)c1` [Example 1-30] it is more than 80%.
Next, `COc1ccc(-c2c(C)nc3sc(C4(C(F)(F)F)CC4)nn23)cc1S(=O)(=O)N[C@H]1CC[C@@H](O)CC1` [Example 1-31]: more than 80%; `Cc1nc2sc(C(C)(C)C)nn2c1-c1ccc(C(F)(F)F)c(S(=O)(=O)N[C@H]2CC[C@H](O)CC2)c1` [Example 1-32]: more than 80%.
Next, `Cc1nc2sc(C(C)(C)O)nn2c1-c1ccc(C(F)(F)F)c(S(=O)(=O)NC(C)(C)CO)c1` [Example 1-33]: more than 80%; `COc1ccc(-c2c(C)nc3sc(C(C)(C)O)nn23)cc1S(=O)(=O)C[C@H]1CC[C@@H](O)CC1` [Example 1-34]: 50 to 80%; `COc1ccc(-c2c(C)nc3sc(C4CC4)nn23)cc1S(=O)(=O)NC(C)(C)CO` [Example 1-35]: more than 80%.
For `COc1ccc(-c2c(C)nc3sc(C(C)(C)O)nn23)cc1S(=O)(=O)NC(C)(C)CO` [Example 1-36], the inhibition at 0.1 µM lay in the range of 50 to 80%.
The figure for `COc1ccc(-c2c(C)nc3sc(C(C)(C)O)nn23)cc1S(=O)(=O)C1CC1` [Example 1-37] is 50 to 80%; for `COc1ccc(-c2c(C)nc3sc(C(C)(C)O)nn23)cc1S(=O)(=O)CC(C)(C)O` [Example 1-38] it is more than 80%; for `COc1ccc(-c2c(C)nc3sc(C4(C#N)CC4)nn23)cc1S(=O)(=O)NC(C)(C)CO` [Example 1-39] it is not above 50%.
Regarding `COc1ccc(-c2c(C)nc3sc(C4(C#N)CC4)nn23)cc1S(=O)(=O)C1CC1` [Example 1-40], the inhibition at 0.1 µM is not above 50%.
Next, `COC(=O)C(C)(C)S(=O)(=O)c1cc(-c2c(C)nc3sc(C(C)(C)O)nn23)ccc1OC` [Example 1-41]: 50 to 80%; `COc1ccc(-c2c(C)nc3sc(C(C)(C)O)cn23)cc1S(=O)(=O)CC(C)(C)O` [Example 1-42]: not above 50%; `COc1ccc(-c2c(C)nc3sc(C(C)(C)OC)cn23)cc1S(=O)(=O)N[C@H]1CC[C@@H](O)CC1` [Example 1-43]: more than 80%.
The figure for `COc1ccc(-c2c(C)nc3sc(C4(O)CCCC4)cn23)cc1S(=O)(=O)N[C@H]1CC[C@@H](O)CC1` [Example 1-44] is not above 50%.
